Measured values published in paper PMC6804006, “Synthesis, Biological Activities and Docking Studies of Novel 4-(Arylaminomethyl)benzamide Derivatives as Potential Tyrosine Kinase Inhibitors” (Molecules, 2019).

Tests used:
HER-2 = target: T1, HER-2 (Homo sapiens, UniProt P04626); experiment: ADP-Glo kinase inhibitory assay, HER-2; type: biochemical; conditions: for inhibition at 0.01 µM: read-out: % Inhibition at 10 nM, HER-2
T1 construct: purchased Promega
Experimental: (§1) We investigated the kinase selectivity of targeted compounds against eight receptor tyrosine kinases including EGFR (epidermal growth factor receptor), HER-2 and HER4 (human epidermal growth factor receptor), IGF1R (insulin like growth factor 1 receptor), InsR (gene insulin receptor), KDR (kinase insert domain receptor), and PDGFRa and PDGFRb (platelet-derived growth factor receptors). The assay was performed using the Kinase-Glo Plus luminescence kinase assay kit (TK-1+ADP-Glo™, Promega, San Diego, CA, USA). It measures kinase activity by quantitating the amount of ATP remaining in solution following a kinase reaction.
(§2) The assay was performed using a Kinase Selectivity Profiling System (TK-1+ADP-Glo™ Assay and TK-2+ADP-Glo™ Assay, Promega), where the kinase activity was measured by quantifying the amount of ADP produced during a kinase reaction. The assay is performed in two steps; firstly, after the kinase reaction, an equal volume of ADP-Glo™ Reagent is added to terminate the kinase reaction and deplete the remaining ATP. Secondly, the Kinase Detection Reagent is added to simultaneously convert ADP to ATP and allow the newly synthesized ATP to be measured using a luciferase/luciferin reaction. The luminescent signal generated is proportional to the ADP concentration produced and is correlated with kinase activity. Our compounds were diluted with kinase buffer (5% DMSO), and 1 μL of the dilution was added to a 5-μL reaction so that the final concentration of DMSO was 1% in all of reactions. All of the enzymatic reactions were conducted at 23 °C for 60 min. The 5-μL reaction mixture contained 1µL of the compound solution, 2µL of the enzyme solution, and 2 µL of kinase substrate. After the enzymatic reaction, 5 µL of ADP-Glo™ Reagent (Promega, USA) was added to each reaction, and the plate was incubated for 40 min at 23 °C. Then, 10 µL of Kinase Detection Reagent (Promega, USA) was added to each reaction, and the plate was incubated for 30 min at 23 °C. Luminescence signal was measured using an Infinite M 200 plate reader (Tecan, Switzerland).
(§3) Kinase activity assays were performed in duplicate at each concentration. The luminescence data were analyzed using the computer software, Magellan™. The difference between luminescence intensities in the absence of Kinase (Lut) and in the presence of Kinase (Luc) was defined as 100% activity (Lut − Luc).

PDGFRa = target: T2, PDGFRa (Homo sapiens, UniProt P16234); experiment: ADP-Glo kinase inhibitory assay, PDGFRa; type: biochemical; conditions: for inhibition at 0.01 µM: read-out: % Inhibition at 10 nM, PDGFRa
T2 construct: purchased Promega
Experimental: as §1, §2, §3

IGF1R = target: T3, IGF1R (Homo sapiens, UniProt P08069); experiment: ADP-Glo kinase inhibitory assay, IGF1R; type: biochemical; conditions: for inhibition at 0.01 µM: read-out: % Inhibition at 10 nM, IGF1R
T3 construct: purchased Promega
Experimental: as §1, §2, §3

PDGFRb = target: T4, PDGFRb (Homo sapiens, UniProt P09619); experiment: ADP-Glo kinase inhibitory assay, PDGFRb; type: biochemical; conditions: for inhibition at 0.01 µM: read-out: % Inhibition at 10 nM, PDGFRb
T4 construct: purchased Promega
Experimental: as §1, §2, §3

HER-4 = target: T5, HER-4 (Homo sapiens, UniProt Q15303); experiment: ADP-Glo kinase inhibitory assay, HER-4; type: biochemical; conditions: for inhibition at 0.01 µM: read-out: % Inhibition at 10 nM, HER-4; for inhibitory activity in relation to HER-4, in words: compared with imatinib
T5 construct: purchased Promega
Experimental: as §1, §2, §3

EGFR = target: T6, EGFR (Homo sapiens, UniProt P00533); experiment: ADP-Glo kinase inhibitory assay, EGFR; type: biochemical; conditions: for inhibition at 0.01 µM: read-out: % Inhibition at 10 nM, EGFR
T6 construct: purchased Promega
Experimental: as §1, §2, §3

InsR = target: T7, InsR (Homo sapiens, UniProt P06213); experiment: ADP-Glo kinase inhibitory assay, InsR; type: biochemical; conditions: for inhibition at 0.01 µM: read-out: % Inhibition at 10 nM, InsR
T7 construct: purchased Promega
Experimental: as §1, §2, §3

KDR (VEGFR2) = target: T8, KDR (VEGFR2) (Homo sapiens, UniProt P35968); experiment: ADP-Glo kinase inhibitory assay, KDR; type: biochemical; conditions: for inhibition at 0.01 µM: 10 nM
T8 construct: purchased Promega
Experimental: as §1
Vascular endothelial growth factor receptor 2 (VEGFR2), also called kinase insert domain receptor (KDR), is a tyrosine kinase receptor for VEGFs that plays a central role in tumor angiogenesis; therefore, the inhibition of VEGFR2 is a promising therapeutic strategy for inhibiting angiogenesis and tumor growth.
as §2, §3

[1] = system: K-562 (chronic myelogenous leukemia); experiment: MTT anti-proliferative assay, K-562; type: cell-based; conditions: Homo sapiens, K562, 48 h, 50% growth inhibition
Experimental: (§4) Each in vitro experiment was performed at least in triplicate, and the standard deviation of absorbance was less than 10% of the mean. For the in vitro assays, a stock solution (1% DMSO in the appropriate buffer with the tested compound diluted under sonication) was prepared from which several dilutions were made with the appropriate buffer.
(§5) Human cell lines were obtained from the Institute of Cytology, Russian Academy of Sciences. […] Cellular sensitivities to clofarabine and its lipid derivatives were measured with the MTT assay. Cells were plated in triplicate in 96-well plates (10^5 cells/well for suspended cell cultures and 5 × 10^3 cells/well for monolayer cultures); on the same day (suspended cell cultures) or on the following day (monolayer cultures), compounds were added at the appropriate dilutions. Plates were incubated under standard conditions for 48 h. Thereafter, 10 μL of MTT (Sigma) in phosphate-buffered saline (5 mg/mL) was added. The plates were incubated for an additional 4 h, and 150 μL of dimethyl sulfoxide (DMSO) was added to dissolve the formazan crystals. The optical density was read on a HALO MPR-95 Microplate Reader (Dynamica Scientific Ltd., Australia) at 570 nm. The antiproliferative effects were determined as degrees of inhibition of tumor cells (%).

[2] = system: HL-60 (promyelocytic leukemia); experiment: MTT anti-proliferative assay, HL-60; type: cell-based, human; conditions: Homo sapiens, HL-60, 48 h, 50% growth inhibition
Experimental: as §4, §5

[3] = system: RPMI 1788 (B lymphocyte, human normal cells); experiment: MTT assay on normal cells RPMI 1788; type: cell-based; conditions: MTT 48 h
Experimental: as §4
Human cell lines were obtained from the Institute of Cytology, Russian Academy of Sciences. The cell lines studied were maintained in RPMI 1640 medium (AppliChem, Darmstadt, Germany) supplemented with 20% (HL-60, RPMI 1788) fetal calf serum (HyClone, Cramlington, UK), in DMEM (A 549) and Eagle’s MEM (AppliChem) (MCF7, HeLa) with 10% fetal calf serum (HyClone). Cells were cultivated at 37 °C in a humidified atmosphere of 5% CO2. Cellular sensitivities to clofarabine and its lipid derivatives were measured with the MTT assay. Cells were plated in triplicate in 96-well plates (10^5 cells/well for suspended cell cultures and 5 × 10^3 cells/well for monolayer cultures); on the same day (suspended cell cultures) or on the following day (monolayer cultures), compounds were added at the appropriate dilutions. Plates were incubated under standard conditions for 48 h. Thereafter, 10 μL of MTT (Sigma) in phosphate-buffered saline (5 mg/mL) was added. The plates were incubated for an additional 4 h, and 150 μL of dimethyl sulfoxide (DMSO) was added to dissolve the formazan crystals. The optical density was read on a HALO MPR-95 Microplate Reader (Dynamica Scientific Ltd., Australia) at 570 nm. The antiproliferative effects were determined as degrees of inhibition of tumor cells (%).

T2 sequence (P16234 24-1089): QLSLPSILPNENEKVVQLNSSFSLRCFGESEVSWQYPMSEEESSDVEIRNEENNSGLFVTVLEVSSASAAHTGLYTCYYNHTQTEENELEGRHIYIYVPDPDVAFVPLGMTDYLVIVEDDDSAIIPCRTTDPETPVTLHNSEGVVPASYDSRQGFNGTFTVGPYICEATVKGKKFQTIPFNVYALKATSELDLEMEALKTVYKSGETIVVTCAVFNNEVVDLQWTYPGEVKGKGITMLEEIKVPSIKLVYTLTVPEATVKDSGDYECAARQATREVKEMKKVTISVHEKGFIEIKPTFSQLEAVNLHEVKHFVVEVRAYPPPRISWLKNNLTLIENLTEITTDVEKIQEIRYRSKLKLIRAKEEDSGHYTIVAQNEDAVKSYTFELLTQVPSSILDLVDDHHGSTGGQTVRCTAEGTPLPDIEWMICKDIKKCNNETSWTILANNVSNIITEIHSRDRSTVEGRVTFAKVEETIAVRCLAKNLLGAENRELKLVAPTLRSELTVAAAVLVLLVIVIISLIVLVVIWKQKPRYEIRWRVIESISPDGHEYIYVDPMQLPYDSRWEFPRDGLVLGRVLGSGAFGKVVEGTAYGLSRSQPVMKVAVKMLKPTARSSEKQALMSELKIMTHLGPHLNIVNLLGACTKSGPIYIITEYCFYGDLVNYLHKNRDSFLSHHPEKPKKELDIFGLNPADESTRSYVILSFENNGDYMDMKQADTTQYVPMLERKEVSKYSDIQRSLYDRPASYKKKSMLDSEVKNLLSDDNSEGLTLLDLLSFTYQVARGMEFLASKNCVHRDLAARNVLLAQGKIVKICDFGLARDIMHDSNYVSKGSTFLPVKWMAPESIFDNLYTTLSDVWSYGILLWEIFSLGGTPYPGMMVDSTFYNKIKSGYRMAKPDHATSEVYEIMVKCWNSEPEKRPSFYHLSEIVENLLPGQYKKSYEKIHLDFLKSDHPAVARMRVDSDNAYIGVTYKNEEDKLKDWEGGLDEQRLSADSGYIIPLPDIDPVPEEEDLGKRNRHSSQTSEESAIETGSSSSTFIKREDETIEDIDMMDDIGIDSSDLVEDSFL
T8 sequence (P35968 20-1356): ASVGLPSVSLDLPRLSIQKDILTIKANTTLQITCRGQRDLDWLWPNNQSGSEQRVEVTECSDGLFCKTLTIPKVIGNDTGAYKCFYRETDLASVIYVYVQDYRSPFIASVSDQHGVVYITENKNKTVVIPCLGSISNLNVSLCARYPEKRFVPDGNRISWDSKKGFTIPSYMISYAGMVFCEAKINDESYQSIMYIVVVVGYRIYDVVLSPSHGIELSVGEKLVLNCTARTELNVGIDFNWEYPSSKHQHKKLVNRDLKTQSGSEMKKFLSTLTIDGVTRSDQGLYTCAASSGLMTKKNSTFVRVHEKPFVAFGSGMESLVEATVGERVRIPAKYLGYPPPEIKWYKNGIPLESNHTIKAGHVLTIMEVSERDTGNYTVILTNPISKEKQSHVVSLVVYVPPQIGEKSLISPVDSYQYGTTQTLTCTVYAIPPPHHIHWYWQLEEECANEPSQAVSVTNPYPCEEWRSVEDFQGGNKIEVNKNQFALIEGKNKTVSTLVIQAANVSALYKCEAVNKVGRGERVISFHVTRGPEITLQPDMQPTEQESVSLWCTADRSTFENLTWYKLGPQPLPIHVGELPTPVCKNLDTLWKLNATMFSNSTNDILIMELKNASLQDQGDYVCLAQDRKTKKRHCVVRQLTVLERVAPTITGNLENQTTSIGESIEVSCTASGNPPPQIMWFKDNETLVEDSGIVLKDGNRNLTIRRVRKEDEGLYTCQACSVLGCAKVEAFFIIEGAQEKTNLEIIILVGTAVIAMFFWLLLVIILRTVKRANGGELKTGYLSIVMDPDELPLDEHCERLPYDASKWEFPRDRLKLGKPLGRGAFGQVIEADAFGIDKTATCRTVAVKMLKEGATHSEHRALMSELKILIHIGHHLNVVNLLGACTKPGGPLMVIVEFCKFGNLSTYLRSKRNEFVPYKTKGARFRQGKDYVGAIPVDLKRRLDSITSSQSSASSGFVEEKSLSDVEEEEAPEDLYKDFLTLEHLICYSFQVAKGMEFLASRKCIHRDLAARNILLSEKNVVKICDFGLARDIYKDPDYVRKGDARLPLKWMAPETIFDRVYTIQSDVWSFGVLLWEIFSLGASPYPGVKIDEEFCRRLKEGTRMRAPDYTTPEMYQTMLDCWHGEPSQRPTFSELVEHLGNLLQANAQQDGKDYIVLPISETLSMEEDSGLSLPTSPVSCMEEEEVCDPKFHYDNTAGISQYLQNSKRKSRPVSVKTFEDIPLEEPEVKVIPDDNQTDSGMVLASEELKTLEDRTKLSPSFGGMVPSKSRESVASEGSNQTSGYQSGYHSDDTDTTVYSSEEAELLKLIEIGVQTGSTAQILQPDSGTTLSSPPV
T4 sequence (P09619 33-1106): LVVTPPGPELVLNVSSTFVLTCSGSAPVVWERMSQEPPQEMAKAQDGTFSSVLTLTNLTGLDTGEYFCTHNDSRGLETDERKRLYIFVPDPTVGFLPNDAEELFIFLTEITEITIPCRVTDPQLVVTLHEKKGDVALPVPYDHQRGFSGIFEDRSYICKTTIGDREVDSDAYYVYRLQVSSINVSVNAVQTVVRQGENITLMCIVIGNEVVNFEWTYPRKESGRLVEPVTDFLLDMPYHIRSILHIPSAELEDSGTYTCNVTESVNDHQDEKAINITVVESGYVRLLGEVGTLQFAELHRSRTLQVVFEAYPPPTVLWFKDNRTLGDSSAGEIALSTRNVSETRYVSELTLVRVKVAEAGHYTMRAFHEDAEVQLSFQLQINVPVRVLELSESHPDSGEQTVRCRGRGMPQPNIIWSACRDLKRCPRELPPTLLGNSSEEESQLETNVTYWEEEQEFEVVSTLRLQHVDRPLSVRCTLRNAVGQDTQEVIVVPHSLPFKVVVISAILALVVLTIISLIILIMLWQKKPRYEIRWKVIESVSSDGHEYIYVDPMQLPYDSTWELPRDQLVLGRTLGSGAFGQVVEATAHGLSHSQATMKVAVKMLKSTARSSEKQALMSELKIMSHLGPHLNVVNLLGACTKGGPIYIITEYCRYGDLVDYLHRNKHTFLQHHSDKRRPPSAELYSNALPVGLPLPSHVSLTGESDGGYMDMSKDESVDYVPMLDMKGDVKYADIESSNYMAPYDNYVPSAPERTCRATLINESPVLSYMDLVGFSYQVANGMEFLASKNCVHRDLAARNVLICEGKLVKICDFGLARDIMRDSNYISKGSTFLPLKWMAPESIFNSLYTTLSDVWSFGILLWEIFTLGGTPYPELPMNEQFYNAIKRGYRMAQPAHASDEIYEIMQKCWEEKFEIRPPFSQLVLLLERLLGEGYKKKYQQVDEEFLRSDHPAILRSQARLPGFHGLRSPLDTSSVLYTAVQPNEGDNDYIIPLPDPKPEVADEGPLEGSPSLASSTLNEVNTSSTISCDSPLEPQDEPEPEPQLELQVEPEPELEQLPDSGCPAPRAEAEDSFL
T7 sequence (P06213 28-1382): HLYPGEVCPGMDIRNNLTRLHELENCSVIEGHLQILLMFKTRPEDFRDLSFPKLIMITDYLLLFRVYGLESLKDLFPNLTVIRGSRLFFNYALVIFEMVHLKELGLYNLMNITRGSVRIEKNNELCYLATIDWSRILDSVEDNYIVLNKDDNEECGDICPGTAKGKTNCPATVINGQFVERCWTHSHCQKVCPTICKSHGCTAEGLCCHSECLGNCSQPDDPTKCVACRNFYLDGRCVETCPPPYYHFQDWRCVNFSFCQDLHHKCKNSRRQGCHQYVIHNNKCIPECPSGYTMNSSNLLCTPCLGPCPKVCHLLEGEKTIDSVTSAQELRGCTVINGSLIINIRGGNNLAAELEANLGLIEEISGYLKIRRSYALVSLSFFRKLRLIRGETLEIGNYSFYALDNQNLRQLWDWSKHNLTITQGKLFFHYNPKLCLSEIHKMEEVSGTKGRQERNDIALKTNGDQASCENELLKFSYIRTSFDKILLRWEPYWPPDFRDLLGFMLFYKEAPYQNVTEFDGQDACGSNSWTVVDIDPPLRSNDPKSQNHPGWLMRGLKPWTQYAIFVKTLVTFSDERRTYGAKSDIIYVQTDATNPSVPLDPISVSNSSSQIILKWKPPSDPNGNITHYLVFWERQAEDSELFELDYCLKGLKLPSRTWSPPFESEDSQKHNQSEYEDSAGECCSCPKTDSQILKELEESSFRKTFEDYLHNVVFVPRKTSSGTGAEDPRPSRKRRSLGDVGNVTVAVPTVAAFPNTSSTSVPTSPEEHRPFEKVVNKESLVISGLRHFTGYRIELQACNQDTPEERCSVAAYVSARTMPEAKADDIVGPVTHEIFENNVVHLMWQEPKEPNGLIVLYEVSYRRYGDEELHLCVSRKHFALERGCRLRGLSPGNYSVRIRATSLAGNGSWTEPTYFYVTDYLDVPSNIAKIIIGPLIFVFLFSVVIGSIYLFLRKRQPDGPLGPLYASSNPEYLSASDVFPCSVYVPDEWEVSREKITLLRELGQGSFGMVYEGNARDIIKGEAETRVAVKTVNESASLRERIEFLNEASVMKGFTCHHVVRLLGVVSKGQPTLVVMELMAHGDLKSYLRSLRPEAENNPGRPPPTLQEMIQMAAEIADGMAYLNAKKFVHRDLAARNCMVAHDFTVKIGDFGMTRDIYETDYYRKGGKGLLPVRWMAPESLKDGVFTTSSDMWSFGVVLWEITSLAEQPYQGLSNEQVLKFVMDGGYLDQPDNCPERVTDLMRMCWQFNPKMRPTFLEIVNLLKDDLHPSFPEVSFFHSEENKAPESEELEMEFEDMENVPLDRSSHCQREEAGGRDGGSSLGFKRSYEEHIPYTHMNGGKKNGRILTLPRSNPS

Compound | inhibition at 0.01 µM (HER-2) | inhibition at 0.01 µM (PDGFRa) | inhibition at 0.01 µM (IGF1R) | melting point | inhibition at 0.01 µM (PDGFRb) | inhibition at 0.01 µM (HER-4) | inhibition at 0.01 µM (EGFR) | inhibition at 0.01 µM (InsR) | inhibition at 0.01 µM (KDR (VEGFR2)) | inhibitory activity in relation to HER-4, in words (HER-4; 10 nM) | further results
CNC(=O)c1cc(Oc2ccc(NC(=O)c3ccc(CNc4cc([N+](=O)[O-])ccc4C)cc3)cc2)ccn1 [Compound 17, 4-{[(2-Methyl-5-nitrophenyl)amino]methyl}-N-(4-{[2-(methylcarbamoyl)pyridin-4-yl]oxy}phenyl) benzoate] | 0% | 0% | 0% | 231 to 233 °C | 0% | 0% | 0% | 49% | 0% |  | selectivity for the gene insulin receptor, in words (InsR; 10 nM, panel of eight receptor tyrosine kinases): high selectivity
CCOC(=O)CC[C@H](NC(=O)c1ccc(CNc2cc([N+](=O)[O-])ccc2C)cc1)C(=O)OCC [Compound 16, Diethyl (4-(((2-methyl-5-nitrophenyl)amino)methyl)benzoyl)glutamate] |  |  |  | 127 to 129 °C |  |  |  |  |  |  | 
COC(=O)c1ccc(N)c(NC(=O)c2ccc(CNc3cc([N+](=O)[O-])ccc3C)cc2)c1 [Compound 19, Methyl 4-amino-3-[(4-{[(2-methy-5-nitrophenyl)amino]methyl}benzoyl)amino]benzoate] |  |  |  | 208 to 210 °C |  |  |  |  |  |  | IC50 [1]: 64 µM; IC50 [2]: > 100 µM; inhibition at 100 µM [3]: 10%
Cc1ccc([N+](=O)[O-])cc1NCc1ccc(C(=O)Nc2cccc(C(F)(F)F)c2)cc1 [Compound 18, 4-{[(2-Methyl-5-nitrophenyl)amino]methyl}-N-[3-(trifluoromethyl)phenyl]benzamide] | 14% | 67% | 0% | 169 to 171 °C | 13% | 56% | 0% | 0% | 24% | comparable to imatinib | 
Cc1ccc(NC(=O)c2ccc(CN3CCN(C)CC3)cc2)cc1Nc1nccc(-c2cccnc2)n1 [Imatinib, reference compound] | 0% | 56% | 0% |  | 75% | 42% | 0% | 36% | 0% |  | inhibition at 100 µM [3]: 13.4%
CNC(=O)c1cc(Oc2ccc(NCc3ccc(C(=O)Nc4cccc(C(F)(F)F)c4)cc3)cc2)ccn1 [Compound 20, 4-{[(4-{[2-(Methylcarbamoyl)pyridin-4-yl]oxy}phenyl)amino]methyl}-N-[3-(trifluoromethyl)phenyl]benzamide] | 0% | 77% | 18% | 170 to 171 °C | 28% | 57% | 56% | 0% | 48% | comparable to imatinib | 
N-(3-(4-methyl-1H-imidazol-1-yl)-5-(trifluoromethyl)phenyl)-4-(((4-(pyridin-2-yl)pyrimidin-2-yl)amino)methyl)benzamide [Compound 22] |  |  |  |  |  |  |  |  |  | comparable to imatinib | % Inhibition at 10 nM, HER-2 (HER-2; 10 nM): 0%; % Inhibition at 10 nM, PDGFRa (PDGFRa; 10 nM): 0%; % Inhibition at 10 nM, IGF1R (IGF1R; 10 nM): 0%; % Inhibition at 10 nM, PDGFRb (PDGFRb; 10 nM): 0%; % Inhibition at 10 nM, HER-4 (HER-4; 10 nM): 49%; % Inhibition at 10 nM, EGFR (EGFR; 10 nM): 21%; % Inhibition at 10 nM, InsR (InsR; 10 nM): 0%; % Inhibition at 10 nM, KDR (KDR (VEGFR2)): 28%
O=C(Nc1cccc(C(F)(F)F)c1)c1ccc(CNc2nccc(-c3cccnc3)n2)cc1 [Compound 24, 4-({[4-(Pyridin-3-yl)pyrimidin-2-yl]amino}methyl)-N-[3-(trifluoromethyl)phenyl]benzamide] | 0% | 0% | 0% | 138 to 141 °C | 0% | 44% | 24% | 0% | 2% | comparable to imatinib | 
CCOC(=O)CC[C@H](NC(=O)c1ccc(CNc2ccc(Oc3ccnc(C(=O)NC)c3)cc2)cc1)C(=O)OCC [Compound 21, Diethyl (4-(((4-((2-(methylcarbamoyl)pyridin-4-yl)oxy)phenyl)amino)methyl)benzoyl)glutamate] |  |  |  | 162 to 164 °C |  |  |  |  |  |  | 
Cc1ccc([N+](=O)[O-])cc1NC(=O)c1ccc(CNc2nccc(-c3cccnc3)n2)cc1 [Compound 25, 4-({[4-(Pyridin-3-yl)pyrimidin-2-yl]amino}methyl)-N-{[(2-methyl-5-nitrophenyl) benzoate] |  |  |  | 175 to 176 °C |  |  |  |  |  |  | 
